The nature of data set [1]: Assessment of physical stability (Thioflavin T fibrillation). It is filed as physicochemical. Further details: key: FND = fibrillation not detected; FD = fibrillation detected. The following applies: 1 mg/ml, 40° C., ThT; for Fibrillation pH 4.0 (Ac): 50 mM acetate buffer pH 4.0, 96 hours; for Fibrillation pH 7.0 (His): 50 mM histidine buffer pH 7.0, 96 hours; for Fibrillation pH 7.0 (Phos.): 50 mM phosphate buffer pH 7.0, 96 hours. The procedure: Solutions containing (i) 1 mg/ml of test peptide, 40 μM ThT and 50 mM phosphate (Ph) buffer (pH 7.0), (ii) 1 mg/ml of test peptide, 40 μM ThT and 50 mM histidine (His) buffer (pH 7.0), and (iii) 1 mg/ml of test peptide, 40 μM ThT and 50 mM acetate (Ac) buffer (pH 4.0), were loaded in a 96-well black fluorescence plate (clear bottom) in triplicate. Data were collected at fixed intervals of 10 min, each preceded by 300 s of automixing (agitation), over a period of 96 hours at 40° C. Physical stability, expressed as lag-time of fibril formation (in hours), was defined as the intersection between two linear regressions representing the initial stable phase and the growth phase.

A short description of data set [2]: Assessment of chemical stability (RP-HPLC normalized purity). It is filed as physicochemical. The conditions noted are these: for Normalized purity after 7 days, 40° C., pH 4: pH 4, 0.2 mg/ml; for Normalized purity after 7 days, 40° C., pH 4 / Normalized purity after 7 days, 40° C., pH 7.5 / Normalized purity after 7 days, 40° C., pH 9: Table 1; for Normalized purity after 7 days, 40° C., pH 7.5: pH 7.5, 0.2 mg/ml; for Normalized purity after 7 days, 40° C., pH 9: pH 9, 0.2 mg/ml. The procedure:
Samples of each test peptide were dissolved in MilliQ™ water, and the pH of the solution was adjusted to pH 4, pH 6, pH 7.5 or pH 9, respectively, using either HCl or NaOH. The final peptide concentration was 0.2 mg/ml. Samples were placed in glass vials and incubated at 40° C. The samples were analyzed by RP-HPLC on a C8 column with gradient elution using an ammonium formate/water eluent system, or on a C18 column with gradient elution using a trifluoroacetic acid/water eluent system. The area-percentage (area-%) of the main peak after incubation time T=t (relative to time T=0) was determined by UV spectroscopy at 220 nm.
The purity was first determined as follows:
Purity(area-%)=(area of main peak/total area of all peaks)×100.
The purity was then normalized between time points by setting purity at time 0 (T=0) to 100 for each pH value for a given peptide, as follows:
Normalised area-% at time t (T=t)=[area-%(T=t)/area-%(T=0)]×100.
The normalized purity values in Table 1 were determined after 7 days of incubation.
The chemical stability assessment described in Example 6 was repeated for four pairs of compounds, each differing only by the presence or absence of an Asn-Asn (N—N) doublet at positions 21 and 22.

*1 amine or outer side, *2 acyl side, *3 side chain or, on linkers, in order; H or OH if unused. Where a SMILES comes first, the peptide text is derived from it. Bridges are numbered along the chain shown (N, C = ends). [ ]: non-standard residue; d: D form. The star is where a group is joined. C20 diacid = O=C(O)CCCCCCCCCCCCCCCCCCC(=O)*; γGlu = O=C(O)[C@H](CCC(=O)[*:2])N[*:1]; NMeI = CC[C@H](C)[C@H](NC)C(=O)O; Sar = CNCC(=O)O

For `CC[C@H](C)[C@@H](C(=O)N[C@@H](CC(C)C)C(=O)N[C@@H](CO)C(=O)N[C@@H](CO)C(=O)N[C@H](C(=O)N[C@@H](CCC(=O)O)C(=O)N[C@H](C(=O)NCC(=O)N[C@@H](CO)C(=O)N[C@@H](CCC(=O)O)C(=O)N[C@H](C(=O)N1CCC[C@H]1C(N)=O)[C@@H](C)O)C(C)C)[C@@H](C)O)N(C)C(=O)[C@H](C)NC(=O)CN(C)C(=O)[C@H](Cc1ccccc1)NC(=O)[C@H](CO)NC(=O)[C@H](CO)NC(=O)[C@H](CCCNC(=N)N)NC(=O)[C@H](Cc1c[nH]cn1)NC(=O)[C@H](CC(C)C)NC(=O)[C@H](Cc1ccccc1)NC(=O)[C@H](Cc1c[nH]cn1)NC(=O)[C@H](C)NC(=O)[C@H](CC(C)C)NC(=O)[C@H](CCCNC(=N)N)NC(=O)[C@H](CCC(N)=O)NC(=O)[C@@H](NC(=O)[C@H](C)NC(=O)[C@@H]1CSSC[C@H](NC(=O)[C@H](CCCNC(=N)N)NC(=O)CC[C@H](NC(=O)CCCCCCCCCCCCCCCCCCC(=O)O)C(=O)O)C(=O)N[C@@H](CC(N)=O)C(=O)N[C@@H]([C@@H](C)O)C(=O)N[C@@H](C)C(=O)N[C@@H]([C@@H](C)O)C(=O)N1)[C@@H](C)O` [Compound 2, [19CD]-isoGlu-R-C( )-NTAT-C( )-ATQRLAHFLHRSSF-Gly(Me)-A-Ile(Me)-LSSTEVGSETP-NH2] ({C20 diacid-γGlu}-RCNTATCATQRLAHFLHRSSF[Sar]A[NMeI]LSSTEVGSETP-NH2; disulfide 2-7), in data set [1], the “Fibrillation pH 4.0 (Ac)” value is recorded as “FND”, the “Fibrillation pH 7.0 (His)” value is “FD” and the “Fibrillation pH 7.0 (Phos.)” value was “FND”. In data set [2], the “Normalized purity after 7 days, 40° C., pH 4” value is recorded as “A (A = >90%)”; the “Normalized purity after 7 days, 40° C., pH 7.5” value was “A (A = >90%)”; the “Normalized purity after 7 days, 40° C., pH 9” value was “B (B = 70-90%)”.
Take `CC[C@H](C)[C@@H](C(=O)N[C@@H](CC(C)C)C(=O)N[C@@H](CO)C(=O)N[C@@H](CO)C(=O)N[C@H](C(=O)N[C@@H](CCC(=O)O)C(=O)N[C@H](C(=O)NCC(=O)N[C@@H](CO)C(=O)N[C@@H](CCC(=O)O)C(=O)N[C@H](C(=O)N1CCC[C@H]1C(N)=O)[C@@H](C)O)C(C)C)[C@@H](C)O)N(C)C(=O)[C@H](C)NC(=O)CN(C)C(=O)[C@H](Cc1ccccc1)NC(=O)[C@H](CO)NC(=O)[C@H](CO)NC(=O)[C@H](CCCNC(=N)N)NC(=O)[C@H](Cc1c[nH]cn1)NC(=O)[C@H](CC(C)C)NC(=O)[C@H](Cc1ccccc1)NC(=O)[C@H](CC(N)=O)NC(=O)[C@H](C)NC(=O)[C@H](CC(C)C)NC(=O)[C@H](CCCNC(=N)N)NC(=O)[C@H](CCC(N)=O)NC(=O)[C@@H](NC(=O)[C@H](C)NC(=O)[C@@H]1CSSC[C@H](NC(=O)[C@H](CCCNC(=N)N)NC(=O)CC[C@H](NC(=O)CCCCCCCCCCCCCCCCCCC(=O)O)C(=O)O)C(=O)N[C@@H](CC(N)=O)C(=O)N[C@@H]([C@@H](C)O)C(=O)N[C@@H](C)C(=O)N[C@@H]([C@@H](C)O)C(=O)N1)[C@@H](C)O` [Compound 3, [19CD]-isoGlu-R-C( )-NTAT-C( )-ATQRLANFLHRSSF-Gly(Me)-A-Ile(Me)-LSSTEVGSETP-NH2] ({C20 diacid-γGlu}-RCNTATCATQRLANFLHRSSF[Sar]A[NMeI]LSSTEVGSETP-NH2; disulfide 2-7): in data set [1], the “Fibrillation pH 4.0 (Ac)” value was “FD”, the “Fibrillation pH 7.0 (His)” value was “FD” and the “Fibrillation pH 7.0 (Phos.)” value is “FD”. In data set [2], the “Normalized purity after 7 days, 40° C., pH 4” value is “A (A = >90%)”; the “Normalized purity after 7 days, 40° C., pH 7.5” value is “B (B = 70-90%)”; the “Normalized purity after 7 days, 40° C., pH 9” value is recorded as “B (B = 70-90%)”.
Regarding `CC[C@H](C)[C@H](NC(=O)[C@@H]1CCCN1C(=O)CNC(=O)[C@H](Cc1ccccc1)NC(=O)[C@H](CO)NC(=O)[C@H](CO)NC(=O)[C@H](Cc1c[nH]cn1)NC(=O)[C@H](Cc1c[nH]cn1)NC(=O)[C@H](CC(C)C)NC(=O)[C@H](Cc1ccccc1)NC(=O)[C@H](CCC(=O)O)NC(=O)[C@H](C)NC(=O)[C@H](CC(C)C)NC(=O)[C@H](CCCNC(=N)N)NC(=O)[C@H](CCC(N)=O)NC(=O)[C@@H](NC(=O)[C@H](C)NC(=O)[C@@H]1CSSC[C@H](NC(=O)[C@H](CCCNC(=N)N)NC(=O)CC[C@H](NC(=O)CCCCCCCCCCCCCCCCCCC(=O)O)C(=O)O)C(=O)N[C@@H](CC(N)=O)C(=O)N[C@@H]([C@@H](C)O)C(=O)N[C@@H](C)C(=O)N[C@@H]([C@@H](C)O)C(=O)N1)[C@@H](C)O)C(=O)N[C@@H](CC(C)C)C(=O)N1CCC[C@H]1C(=O)N1CCC[C@H]1C(=O)N[C@H](C(=O)N[C@@H](CC(N)=O)C(=O)N[C@H](C(=O)NCC(=O)N[C@@H](CO)C(=O)N[C@@H](CC(N)=O)C(=O)N[C@H](C(=O)N1CCC[C@H]1C(N)=O)[C@@H](C)O)C(C)C)[C@@H](C)O` [Compound 97, reference compound] ({C20 diacid-γGlu}-RCNTATCATQRLAEFLHHSSFGPILPPTNVGSNTP-NH2; disulfide 2-7), the “Normalized purity pH 4 (Table 5)” value in data set [2] (pH 4, repeat of Example 6 for pairs with/without Asn-Asn at 21-22) is “A (A = >90%)”. Also, the “Normalized purity pH 6 (Table 5)” value in data set [2] (pH 6, repeat of Example 6 for pairs with/without Asn-Asn at 21-22) was “A (A = >90%)”. In addition, the “Normalized purity pH 7.5 (Table 5)” value in data set [2] (pH 7.5, repeat of Example 6 for pairs with/without Asn-Asn at 21-22) is “A (A = >90%)”. The “Normalized purity pH 9 (Table 5)” value in data set [2] (pH 9, repeat of Example 6 for pairs with/without Asn-Asn at 21-22) was “A (A = >90%)”.
Take `CC[C@H](C)[C@H](NC(=O)[C@@H]1CCCN1C(=O)CNC(=O)[C@H](Cc1ccccc1)NC(=O)[C@H](CC(N)=O)NC(=O)[C@H](CC(N)=O)NC(=O)[C@H](CO)NC(=O)[C@H](CO)NC(=O)[C@H](Cc1c[nH]cn1)NC(=O)[C@@H](NC(=O)[C@H](CC(C)C)NC(=O)[C@H](Cc1ccccc1)NC(=O)[C@H](CC(N)=O)NC(=O)[C@H](C)NC(=O)[C@H](CC(C)C)NC(=O)[C@H](CCCNC(=N)N)NC(=O)[C@H](CCC(N)=O)NC(=O)[C@@H](NC(=O)[C@H](C)NC(=O)[C@@H]1CSSC[C@H](NC(=O)[C@@H](N)CCCCN)C(=O)N[C@@H](CC(N)=O)C(=O)N[C@@H]([C@@H](C)O)C(=O)N[C@@H](C)C(=O)N[C@@H]([C@@H](C)O)C(=O)N1)[C@@H](C)O)C(C)C)C(=O)N[C@@H](CC(C)C)C(=O)N1CCC[C@H]1C(=O)N1CCC[C@H]1C(=O)N[C@H](C(=O)N[C@@H](CC(N)=O)C(=O)N[C@H](C(=O)NCC(=O)N[C@@H](CO)C(=O)N[C@@H](CC(N)=O)C(=O)N[C@H](C(=O)N[C@@H](Cc1ccc(O)cc1)C(N)=O)[C@@H](C)O)C(C)C)[C@@H](C)O` [Pramlintide, reference compound]: in data set [1], the “Fibrillation pH 4.0 (Ac)” value is on record as “FD” and the “Fibrillation pH 7.0 (Phos.)” value was “FD”.

The values are drawn from patent US20210115104A1, “AMYLIN ANALOGUES” (Zealand Pharma A/S, priority 2015, published 2021).
